We go through eleven compounds from patent EP4471048A1, “PEPTIDE INHIBITORS OF INTERLEUKIN-23 RECEPTOR” (Zealand Pharma A/S, priority 2023, dated 2024).

Structures are written as SMILES. *1 amine or outer side, *2 acyl side, *3 side chain or, on linkers, in order; H or OH if unused. Where a SMILES comes first, the peptide text is derived from it. Bridges are numbered along the chain shown (N, C = ends). [ ]: non-standard residue; d: D form. The star is where a group is joined. NH(4-(3-pyridyl)butyl) = c1cncc(CCCCN*)c1; X8 = O=C(CC[C@@H](N[*:2])C(=O)[*:3])[*:1]; β3hW = N[C@H](CC(=O)O)Cc1c[nH]c2ccccc12; 2Nal = N[C@@H](Cc1ccc2ccccc2c1)C(=O)O; AEF = NCCOc1ccc(C[C@H](N)C(=O)O)cc1; 3Pal = N[C@@H](Cc1cccnc1)C(=O)O; β3hE = N[C@@H](CCC(=O)O)CC(=O)O; αMeL = CC(C)C[C@](C)(N)C(=O)O; β3hK = NCCCC[C@H](N)CC(=O)O; Dab = NCC[C@H](N)C(=O)O; βAla = NCCC(=O)O

In the test the target is T1, human IL-23R (Homo sapiens, UniProt Q5VWK5).
T1 sequence (Q5VWK5 22-629): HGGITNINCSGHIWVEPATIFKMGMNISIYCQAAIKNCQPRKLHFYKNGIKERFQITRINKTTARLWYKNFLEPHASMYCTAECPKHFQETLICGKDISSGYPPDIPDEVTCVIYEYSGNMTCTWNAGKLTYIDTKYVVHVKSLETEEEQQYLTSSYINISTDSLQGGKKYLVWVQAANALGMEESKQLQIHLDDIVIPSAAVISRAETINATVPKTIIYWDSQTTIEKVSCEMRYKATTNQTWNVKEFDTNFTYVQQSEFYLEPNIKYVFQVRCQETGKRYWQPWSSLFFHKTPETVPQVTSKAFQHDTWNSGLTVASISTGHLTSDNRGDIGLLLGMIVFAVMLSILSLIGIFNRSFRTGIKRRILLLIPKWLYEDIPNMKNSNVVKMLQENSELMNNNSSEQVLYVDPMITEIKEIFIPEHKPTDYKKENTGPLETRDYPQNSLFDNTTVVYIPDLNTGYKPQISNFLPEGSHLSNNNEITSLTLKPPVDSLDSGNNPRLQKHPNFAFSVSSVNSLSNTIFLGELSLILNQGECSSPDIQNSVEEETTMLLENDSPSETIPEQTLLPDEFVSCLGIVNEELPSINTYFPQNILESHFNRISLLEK
The test can be described thus: biochemical. The following applies: for Emax: read-out: % displacement (hIL-23R NIuc). The source says: The compound binding affinity for IL-23R was estimated by the ability of compounds to displace a fluorophore-labelled reference compound from the human IL-23R. The assay principle relies on Bioluminescence Resonance Energy Transfer (BRET) between a fluorophore-labelled reference compound binding to the IL-23R part of a fusion protein consisting of the IL-23R fused to a Nanoluc luciferase enzyme (Nanoluc). The Nanoluc is placed in the N-terminus in close proximity to the binding domain of the ligand. Upon close proximity between the fluorophore of the fluorophore-labelled compound and the Nanoluc of the fusion protein, bioluminescence energy generated from conversion of a Nanoluc substrate, is transferred to the fluorophore resulting in an increase in BRET. In presence of an unlabelled compound, the unlabelled compound displaces the fluorophore-labelled peptide from its binding site resulting in a decrease in BRET. The concentration for which half of the fluorophore-labelled peptide is displaced by the unlabelled compound depends on the affinity of the compound for the IL-23R, and is termed the IC50 concentration.
The plasmid also contained a gene to confer resistance for the antibiotic hygromycin. A cell line stably expressing the Nluc-IL23R fusion protein was generated by transfection of HEK293 cells with the expression plasmid and selected with hygromycin for 3 weeks in Growth medium consisting of DMEM w/ Glutamax-I containing, 10% V/V FBS, 1% V/V P/S, 1 mM Sodium Pyruvate, and 1X NEAA, and 0.3 mg/mL hygromycin. The remaining cells were propagated and considered a stable expressing Nluc-IL23R fusion protein pool clone.
Cells expressing the Nluc-IL23R fusion protein were expanded in Growth medium and membranes prepared by homogenization of a cell pellet from 18 T175 flasks (4 °C in subsequent steps). The cell pellet was lysed Tris 10 mM, 7.5, 1 mM EDTA and protease inhibitors (Complete, Roche) and homogenized using a 15 mL glass-dounce by 50 strokes. The homogenate was spun at spin @1500 rpm for 10 min, the supernatant transferred to SV-34 tubes and spun at 40000g for 20 min at 4 °C to pellet the crude membranes. The supernatant was then removed, the pellet resuspended in 5 mL buffer containing 50 mM HEPES pH 7.4, 5 mM EGTA, and 5 mM MgCl2, and homogenized. Aliquots of the resuspended and homogenized membranes containing the Nluc-IL23R fusion protein were stored at -80 °C until use.
The plate was sealed with light impermeable plate seals, and incubated on an orbital shaker 400 rpm for 2 hours at room temperature. To determine the BRET ratio, the plate seal was removed and 25 µL of the Nanoluc substrate (Promega N1572) diluted 1:500 was added to each well and incubated for 1-2 minutes on an orbital shaker at 400 rpm. […] The BRET ratio was calculated as the fluorescence from the TAMRA/nanoluc bioluminescence.
Compound potency (IC50) and maximal displacement (% displacement) were estimated by computer-aided curve fitting using a 4-parameter logistic (4PL) non-linear model. […]
In this application, the inventors provide the data as IC50 values.

With `CC[C@H](C)[C@@H]1NC(=O)[C@@H]2CCCCNC(=O)CC[C@@H](CC(=O)N[C@@H](Cc3cccnc3)C(=O)NC)NC(=O)[C@](C)(CC(C)C)NC(=O)[C@H](Cc3ccc4ccccc4c3)NC(=O)[C@H](Cc3ccc(OCCN)cc3)NC(=O)[C@H](CCC(=O)N2)NC(=O)[C@H](CCC(N)=O)NC(=O)[C@H](Cc2c[nH]c3ccccc23)NC(=O)[C@H](C(C)C)NC1=O` [Compound 61, K(1c)(6c)^†IVWQE(6c)[Y(2-aminoethoxy)][2-Nal][2-Me-Leu][beta-hGlu](cyclo1)[3-(3-Pyridyl)-Ala]-[NHMe]] (KIVWQE[AEF][2Nal][αMeL][β3hE][3Pal]-NHMe; lactam 1-10, N-6), the concentration for half-maximal inhibition (IC50) is 11 nM and the Emax worked out at 99%. Consider `CNC(=O)[C@H](Cc1cccnc1)NC(=O)[C@H](CCN)NC(=O)[C@@H]1CCNC(=O)[C@H]2CCC(=O)N[C@@H](Cc3c[nH]c4ccccc34)C(=O)N[C@@H](CCC(N)=O)C(=O)N[C@@H](CCC(=O)N2)C(=O)N[C@@H](Cc2ccc(OCCN)cc2)C(=O)N[C@@H](Cc2ccc3ccccc3c2)C(=O)N[C@@](C)(CC(C)C)C(=O)N1` [Compound 109, [{d}iso-Glu](1c)^‡(6c)^†WQE(6c)[Y(2-aminoethoxy)][2-Nal][2-Me-Leu][Dab](1c)[Dab][3-(3-Pyridyl)-Ala]-[NHMe]] (WQE[AEF][2Nal][αMeL][Dab][Dab][3Pal]-NHMe; linker N-3-7 via X8), for which inhibition was half-maximal at 26 nM (IC50) and the Emax was determined as 96%.

Consider `CNC(=O)[C@H](Cc1cccnc1)NC(=O)[C@H](CCN)NC(=O)[C@@H]1CCC(=O)N[C@H]2CCNC(=O)CC[C@H](NC(=O)[C@H](CCC(N)=O)NC(=O)[C@H](Cc3c[nH]c4ccccc34)NC(=O)CNC2=O)C(=O)N[C@@H](Cc2ccc(OCCN)cc2)C(=O)N[C@@H](Cc2ccc3ccccc3c2)C(=O)N[C@@](C)(CC(C)C)C(=O)N1` [Compound 105, [iso-Dab](1c)^†(6c)GWQE(6c)[Y(2-aminoethoxy)][2-Nal][2-Me-Leu]E(1c)[Dab][3-(3-Pyridyl)-Ala]-[NHMe]], for which inhibition was half-maximal at 11 nM (IC50) and the Emax is 101%. With `CC(C)C[C@]1(C)NC(=O)[C@H](Cc2ccc3ccccc3c2)NC(=O)[C@H](Cc2ccc(OCCN)cc2)NC(=O)[C@@H]2CCC(=O)N[C@@H](CCCCCNC(=O)CC[C@@H](C(=O)N[C@@H](CCN)C(=O)N[C@@H](Cc3cccnc3)C(N)=O)NC1=O)C(=O)N[C@@H]([C@@H](C)O)C(=O)N[C@@H](C(C)C)C(=O)N[C@@H](Cc1c[nH]c3ccccc13)C(=O)N[C@@H](CCC(N)=O)C(=O)N2` [Compound 4, [hLys](1c)(6c)^†TVWQE(6c)[Y(2-aminoethoxy)][2-Nal][2-Me-Leu]E(1c)[Dab][3-(3-Pyridyl)-Ala]-[NH2]], 0.029 nM corresponded to half-maximal inhibition (IC50) and the Emax turned out to be 102%. For `COc1ccc(C[C@@H]2NC(=O)[C@@H]3CCC(=O)N[C@@H](CCCCNC(=O)CC[C@@H](C(=O)N[C@@H](CCCCNC(=O)CCc4cccnc4)C(N)=O)NC(=O)[C@](C)(CC(C)C)NC(=O)[C@H](Cc4ccc5ccccc5c4)NC2=O)C(=O)N[C@@H]([C@@H](C)O)C(=O)N[C@@H](C(C)C)C(=O)N[C@@H](Cc2c[nH]c4ccccc24)C(=O)N[C@@H](CCC(N)=O)C(=O)N3)cc1` [Compound 52, K(1c)(6c)^†TVWQE(6c)[Y(Me)][2-Nal][2-Me-Leu]E(1c)[K(3-pyridylpropionyl)]-[NH2]], in that order: 120 nM and 101%. For `CNC(=O)[C@H](Cc1cccnc1)NC(=O)[C@H](CCN)NC(=O)[C@@H]1CCC(=O)NCCCC[C@H]2CC(=O)N[C@@H](Cc3c[nH]c4ccccc34)CC(=O)N[C@@H](CCC(N)=O)C(=O)N[C@@H](CCC(=O)N2)C(=O)N[C@@H](Cc2ccc(OCCN)cc2)C(=O)N[C@@H](Cc2ccc3ccccc3c2)C(=O)N[C@@](C)(CC(C)C)C(=O)N1` [Compound 100, [beta-hLys](1c)(6c)^†[beta-hTrp]QE(6c)[Y(2-aminoethoxy)][2-Nal][2-Me-Leu]E(1c)[Dab][3-(3-Pyridyl)-Ala]-[NHMe]] ([β3hK][β3hW]QE[AEF][2Nal][αMeL]E[Dab][3Pal]-NHMe; lactam 1-8, N-4), in that order: 150 nM and 97%. The matching figures for `CNC(=O)[C@H](Cc1cccnc1)NC(=O)[C@H](CCN)NC(=O)[C@@H]1CCC(=O)NCCCC[C@@H]2NC(=O)CC[C@H](NC(=O)[C@H](CCC(N)=O)NC(=O)[C@H](Cc3c[nH]c4ccccc34)NC(=O)CCNC2=O)C(=O)N[C@@H](CC2CC2)C(=O)N[C@@H](Cc2ccc3ccccc3c2)C(=O)N[C@@](C)(CC(C)C)C(=O)N1` [Compound 82, K(1c)(6c)^†[3-Aminopropanoyl]WQE(6c)[Cyclopropyl-Ala][2-Nal][2-Me-Leu]E(1c)[Dab][3-(3-Pyridyl)-Ala]-[NHMe]]: 3.7 nM and 101%. Turning to `CNC(=O)[C@H](Cc1cccnc1)NC(=O)[C@H](CCN)NC(=O)[C@@H]1CCC(=O)NCCCC[C@@H]2NC(=O)CCC[C@H](NC(=O)[C@H](CCC(N)=O)NC(=O)[C@H](Cc3c[nH]c4ccccc34)NC(=O)[C@H]([C@@H](C)O)NC2=O)C(=O)N[C@@H](Cc2ccc(OCCN)cc2)C(=O)N[C@@H](Cc2ccc3ccccc3c2)C(=O)N[C@@](C)(CC(C)C)C(=O)N1` [Compound 38, K(1c)(6c)^†TWQ[hGlu](6c)[Y(2-aminoethoxy)][2-Nal][2-Me-Leu]E(1c)[Dab][3-(3-Pyridyl)-Ala]-[NHMe]], the IC50 worked out at 1.5 nM and the Emax was found to be 101%. For `CNC(=O)[C@H](Cc1cccnc1)NC(=O)[C@H](CCN)NC(=O)[C@@H]1CCC(=O)NCCCC[C@H]2CC(=O)N[C@@H](Cc3c[nH]c4ccccc34)C(=O)N[C@@H](CCC(N)=O)C(=O)N[C@@H](CCC(=O)N2)C(=O)N[C@@H](Cc2ccc(OCCN)cc2)C(=O)N[C@@H](Cc2ccc3ccccc3c2)C(=O)N[C@@](C)(CC(C)C)C(=O)N1` [Compound 101, [beta-hLys](1c)(6c)^†WQE(6c)[Y(2-aminoethoxy)][2-Nal][2-Me-Leu]E(1c)[Dab][3-(3-Pyridyl)-Ala]-[NHMe]], in that order: 30 nM and 103%.

As to `CC(C)[C@@H]1NC(=O)[C@H](CO)NC(=O)[C@@H]2CCCCNC(=O)CC[C@@H](C(=O)NCCCCc3cccnc3)NC(=O)CNC(=O)[C@H](Cc3ccc4ccccc4c3)NC(=O)[C@H](Cc3ccc(OCCN)cc3)NC(=O)[C@H](CCC(=O)N2)NC(=O)[C@H](CCC(N)=O)NC(=O)[C@H](Cc2c[nH]c3ccccc23)NC1=O` [Compound 31, K(1c)(6c)^†SVWQE(6c)[Y(2-aminoethoxy)][2-Nal]GE(1c)-[NH-4-(pyridin-3-yl)butanyl]] (KSVWQE[AEF][2Nal]GE-{NH(4-(3-pyridyl)butyl)}; lactam 1-10, N-6), the “% displacement (hIL-23R NIuc)” value is on record as 98%. `CNC(=O)[C@H](Cc1cccnc1)NC(=O)[C@H](CCN)NC(=O)[C@@H]1CCC(=O)NCCCC[C@@H]2NC(=O)CC[C@H](NC(=O)[C@H](CCC(N)=O)NC(=O)[C@H](Cc3c[nH]c4ccccc34)NC(=O)CCNC2=O)C(=O)N[C@@H](Cc2c[nH]c3ccccc23)C(=O)N[C@@H](Cc2ccc3ccccc3c2)C(=O)N[C@@](C)(CC(C)C)C(=O)N1` [Compound 110, K(1c)(6c)^†[3-Aminopropanoyl]WQE(6c)W[2-Nal][2-Me-Leu]E(1c)[Dab][3-(3-Pyridyl)-Ala]-[NHMe]] (K[βAla]WQEW[2Nal][αMeL]E[Dab][3Pal]-NHMe; lactam 1-9, N-5): half-maximal inhibition (IC50) required 0.079 nM and the Emax was determined as 100%.
